Source: paper PMC9098913, “In vitro reconstitution of Escherichia coli divisome activation” (Nature Communications, 2022)

System: FtsA self-interaction
Experiment: FRET self-interaction of His-tagged FtsAs (and His-SUMO control) on Tris-NTA membranes
Format: binding, E. coli
Procedure: To study colocalization of His-tagged variants of FtsA, 0.5–1 µM of Cy5 labelled His-tagged FtsAs were added to the chamber, incubated for 20 min and washed 6x with reaction buffer. […] To control the density of membrane-bound FtsA, SUVs without and with Tris-NTA lipids were mixed to obtain the respective Tris-NTA concentrations. To perform FRET/FRAP experiments, equimolar concentrations of Cy3 and Cy5 labelled His-tagged FtsAs (total 0.5–1 µM) or His-SUMO-Cys were added to a chamber and treated as above. […] FRAP experiments were performed as described before.
Bleaching the acceptor dye leads to an increase in the donor intensity, which can be used to quantify the Foerster Resonance energy transfer (FRET)[48]. FRET efficiency was quantified with E%=Ipost/Ipost+Ipre⋅100 , where Ipost is the intensity of the […] and Ipre is the […]. […] To extract the contribution of both processes, we adjusted a routine recently published by Gerganova et al.[33]. In short, the code provides the contribution of both modes of recovery by analysing the shape of the fluorescence recovery profile. […] Contribution of diffusion leads to a change of the slope of the outer borders of the bleached region (S4h right). Thus, by measuring the change of the slope of the border recovery, diffusion and simple on/off binding can be distinguished. We developed “FRAPdiff”, a graphical user interface, which uses the original fit routine by David Rutkowski. It can be used directly on.tiff movies with annotated bleach regions as ImageJ ROIs. In addition, we added optional bleach correction, user selectable projection axis (x or y), and optional mirroring of the recovery profiles, if bleaching was not symmetric. The original fit routine for estimating the recovery and diffusion dynamics can be found at https://github.com/davidmrutkowski/1DReflectingDiffusion. FRAPdiff is available at 10.5281/zenodo.6400639[49] under the GPLv3 open-source license.

Substance “FtsA-His6: FtsA WT (1-405) with amphipathic helix replaced by C-terminal His-tag” has an FRET efficiency (0.1% Tris NTA, + FtsZ; Exp1) of 3.78%, an FRET efficiency (0.1% Tris NTA, + FtsZ; Exp2) of 0.99% and an FRET efficiency (0.1% Tris NTA, + FtsZ; mean, n = 2) of 2.39%. For the same substance, the FRET efficiency (0.1% Tris NTA, without FtsZ; Exp1) was 3.14%, the FRET efficiency (0.1% Tris NTA, without FtsZ; Exp2) was 0.59% and the FRET efficiency (0.1% Tris NTA, without FtsZ; mean, n = 2) was 1.87%. It also gave an FRET efficiency (0.4% Tris NTA; + FtsZ; Exp1) of 6.34%, an FRET efficiency (0.4% Tris NTA; + FtsZ; Exp2) of 13.91% and an FRET efficiency (0.4% Tris NTA; + FtsZ; Mean, n = 2) of 10.12%. The FRET efficiency (0.4% Tris NTA; without FtsZ; Exp1) was 8.25%, the FRET efficiency (0.4% Tris NTA; without FtsZ; Exp2) was 10.75% and the FRET efficiency (0.4% Tris NTA; without FtsZ; Mean, n = 2) was 9.50%. It also gave an FRET efficiency (0.6% Tris NTA; + FtsZ; Exp1) of 12.72%, an FRET efficiency (0.6% Tris NTA; + FtsZ; Exp2) of 16.89% and an FRET efficiency (0.6% Tris NTA; + FtsZ; Exp3) of 21.31%. For the same substance, the FRET efficiency (0.6% Tris NTA; + FtsZ; Mean, n = 3) was 16.97%, the FRET efficiency (0.6% Tris NTA; without FtsZ; Exp1) was 13.98% and the FRET efficiency (0.6% Tris NTA; without FtsZ; Exp2) was 15.14%. It also gave an FRET efficiency (0.6% Tris NTA; without FtsZ; Exp3) of 19.21%, an FRET efficiency (0.6% Tris NTA; without FtsZ; Mean, n = 3 (His6-SUMO n = 2)) of 16.11% and an FRET efficiency (0.8% Tris NTA; + FtsZ; Exp1) of 13.61%. For the same substance, the FRET efficiency (0.8% Tris NTA; + FtsZ; Exp2) was 19.13%, the FRET efficiency (0.8% Tris NTA; + FtsZ; Exp3) was 15.44% and the FRET efficiency (0.8% Tris NTA; + FtsZ; Mean, n = 3) was 16.06%. The FRET efficiency (0.8% Tris NTA; without FtsZ; Exp1) was 14.15%, the FRET efficiency (0.8% Tris NTA; without FtsZ; Exp2) was 18.41% and the FRET efficiency (0.8% Tris NTA; without FtsZ; Exp3) was 13.88%. The FRET efficiency (0.8% Tris NTA; without FtsZ; Mean, n = 3 (His6-SUMO n = 2)) was 15.48%, the FRET efficiency (1% Tris NTA; + FtsZ; Exp1) was 18.34% and the FRET efficiency (1% Tris NTA; + FtsZ; Exp2) was 21.19%. The FRET efficiency (1% Tris NTA; + FtsZ; Exp3) was 19.01%, the FRET efficiency (1% Tris NTA; + FtsZ; Mean, n = 3 (R286W-His6 n = 4)) was 19.51% and the FRET efficiency (1% Tris NTA; without FtsZ; Exp1) was 16.93%. The FRET efficiency (1% Tris NTA; without FtsZ; Exp2) was 19.88%, the FRET efficiency (1% Tris NTA; without FtsZ; Exp3) was 16.24% and the FRET efficiency (1% Tris NTA; without FtsZ; Mean, n = 3 (R286W-His6 n = 4)) was 17.68%. For the same substance, the FRET efficiency (2% Tris NTA; + FtsZ; Exp1) was 32.05%, the FRET efficiency (2% Tris NTA; + FtsZ; Exp2) was 31.95% and the FRET efficiency (2% Tris NTA; + FtsZ; Mean, n = 2) was 32.00%. It also gave an FRET efficiency (2% Tris NTA; without FtsZ; Exp1) of 32.49%, an FRET efficiency (2% Tris NTA; without FtsZ; Exp2) of 23.34% and an FRET efficiency (2% Tris NTA; without FtsZ; Mean, n = 2) of 27.92%. For the same substance, the FRET efficiency (Tris 0.40 %, + FtsZ; mean) was 10.12%, the FRET efficiency (Tris 0.40 %, without FtsZ; mean) was 9.50% and the FRET efficiency (Tris 0.60 %, + FtsZ; mean) was 16.97%. For the same substance, the FRET efficiency (Tris 0.60 %, without FtsZ; mean) was 16.11%, the FRET efficiency (Tris 0.80 %, + FtsZ; mean) was 16.06% and the FRET efficiency (Tris 0.80 %, without FtsZ; mean) was 15.48%. For the same substance, the FRET efficiency (Tris 1.00 %, + FtsZ; mean) was 19.51%, the FRET efficiency (Tris 1.00 %, without FtsZ; mean) was 17.68% and the FRET efficiency (Tris 2.00 %, + FtsZ; mean) was 32.00%. For the same substance, the FRET efficiency (Tris 2.00 %, without FtsZ; mean) was 27.92%, the FRET efficiency (Tris […], + FtsZ; mean) was 28.93% and the FRET efficiency (Tris […], without FtsZ; mean) was 25.95%. For the same substance, the FRET efficiency ([…] Tris NTA, + FtsZ; Exp1) was 2.38%, the FRET efficiency ([…] Tris NTA, + FtsZ; Exp2) was 10.40% and the FRET efficiency ([…] Tris NTA, + FtsZ; mean, n = 2) was 6.39%. For the same substance, the FRET efficiency ([…] Tris NTA, without FtsZ; Exp1) was 3.80%, the FRET efficiency ([…] Tris NTA, without FtsZ; Exp2) was 9.45% and the FRET efficiency ([…] Tris NTA, without FtsZ; mean, n = 2; listed as FtsA WT-His6) was 6.62%. The FRET efficiency ([…] Tris NTA, without FtsZ; mean, n = 2; listed as WT-His6) was 6.63%, the FRET efficiency ([…] Tris NTA; + FtsZ; Exp1) was 34.73% and the FRET efficiency ([…] Tris NTA; + FtsZ; Exp2) was 27.23%. For the same substance, the FRET efficiency ([…] Tris NTA; + FtsZ; Exp3) was 24.81%, the FRET efficiency ([…] Tris NTA; + FtsZ; Mean, n = 3) was 28.93% and the FRET efficiency ([…] Tris NTA; without FtsZ; Exp1) was 28.26%. It also gave an FRET efficiency ([…] Tris NTA; without FtsZ; Exp2) of 26.94%, an FRET efficiency ([…] Tris NTA; without FtsZ; Exp3) of 22.66% and an FRET efficiency ([…] Tris NTA; without FtsZ; Mean, n = 3) of 25.95%. It also gave an FRET efficiency ([…] Tris-NTA; + N (FtsNcyto); mean) of 26.95%, an FRET efficiency ([…] Tris-NTA; + N/Z (FtsNcyto and FtsZ); mean) of 24.12% and an FRET efficiency ([…] Tris-NTA; + N/Z; Exp. 1) of 22.20%. The FRET efficiency ([…] Tris-NTA; + N/Z; Exp. 2) was 29.86%, the FRET efficiency ([…] Tris-NTA; + N/Z; Exp. 3) was 20.31% and the FRET efficiency ([…] Tris-NTA; + N; Exp. 1) was 28.94%. For the same substance, the FRET efficiency ([…] Tris-NTA; + N; Exp. 2) was 24.96%, the FRET efficiency ([…] Tris-NTA; + N; Exp. 3) was 26.96% and the FRET efficiency ([…] Tris-NTA; + Z (FtsZ); mean) was 27.70%. It also gave an FRET efficiency ([…] Tris-NTA; + Z; Exp. 1) of 34.73%, an FRET efficiency ([…] Tris-NTA; + Z; Exp. 2) of 27.23% and an FRET efficiency ([…] Tris-NTA; + Z; Exp. 3) of 24.81%. For the same substance, the FRET efficiency ([…] Tris-NTA; + Z; Exp. 4) was 24.02%, the FRET efficiency ([…] Tris-NTA; alone; Exp. 1) was 28.26% and the FRET efficiency ([…] Tris-NTA; alone; Exp. 2) was 26.94%. The FRET efficiency ([…] Tris-NTA; alone; Exp. 3) was 22.66%, the FRET efficiency ([…] Tris-NTA; alone; Exp. 4) was 20.84% and the FRET efficiency ([…] Tris-NTA; alone; mean) was 24.68%.
